Data reported in patent US20050042213A1, “Methods and pharmaceutical compositions for modulating heparanase activation and uses thereof” (InSight Biopharmaceuticals Ltd., priority 2003, published 2005).
The star is where a group is joined. AMC = Cc1cc(=O)oc2cc(N*)ccc12; Cbz = O=C(OCc1ccccc1)*

Tests used:
[1] = target: antithrombin (Homo sapiens, UniProt P01008); assay: Elisa assay for binding of antithrombin to heparin; conditions: inhibition of antithrombin binding to heparin; NI = no inhibition; read-out: IC50 ATIII
Description: Elisa assay for determination of binding of antithrombin to heparin—96 well microplates were coated overnight with Heparin-albumin (Lizard) and blocked with I % BSA in PBS with 0.05% Tween and 0.01% thimerosal for 2 hrs. […] was added to the plates at a concentration of 0.5 μg/ml and incubated overnight at 4° C. The amount of antithrombin bound to heparin was detected using an anti-antithrombin monoclonal antibody (Sigma Cat. # A5816) diluted to 1:200, and secondary antibodies (anti-mouse anti-Fc? conjugated to horseradish peroxidase, Jackson cat. # 115-035-008, 1:100). TMB (Pierce Cat. #34021) was used as a substrate for peroxidase.
The plates were read at 450 nm with a reference wavelength of 630 nm using a VERSAmax plate reader. […] Percent inhibition was calculated as compared to the control reactions pre-incubated with 1% DMSO only.

[2] = Heparin binding of compounds (heparin sepharose CL-6B beads); conditions: compound at 5 uM
Description: Heparin binding—5 μM of the selected compound was prepared in a solution of PBS pH 7.2 with 0.05% Tween and 5% DMSO. […] Excess water was discarded by filtration using a Multiscreen vacuum manifold (Millipore, Cat No. MAVM 096 00). 200 μl of each compound tested was transferred to three wells of the filter plate—one empty well, one with sepharose CL-6B and one with heparin sepharose CL-6B. Plates were rotated for 2 hrs at 37° C. followed by filtration to a new 96 well clear plate, using a Multiscreen vacuum manifold. The absorbance spectrum of the filtrate in each well was determined using a VERSAmax plate reader (Molecular devices). Percent of heparin binding was calculated from the binding to heparin sepharose CL-6B as compared to the binding of the compound to the control sepharose CL-6B beads.

[3] = target: T1, VEGF (Homo sapiens, UniProt P15692); assay: Elisa assay for binding of VEGF to heparin; conditions: inhibition of VEGF binding to heparin
T1 sequence (P15692 27-191 isoform P15692-4): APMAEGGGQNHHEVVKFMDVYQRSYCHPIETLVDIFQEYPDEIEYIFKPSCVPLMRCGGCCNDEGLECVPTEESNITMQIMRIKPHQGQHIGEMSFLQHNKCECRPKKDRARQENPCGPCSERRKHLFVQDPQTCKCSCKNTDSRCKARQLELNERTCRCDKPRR
Description: Elisa assay for determination of binding of VEGF to heparin—96 well microplates were coated overnight with Heparin-albumin (Lizard) and blocked with 1% BSA in PBS with 0.05% Tween and 0.01% thimerosal for 2 hrs. VEGF was added to the plates at a concentration of 2 ng/ml and incubated for 45 min. at 23-25° C. The amount of VEGF bound to heparin was detected using anti-VEGF monoclonal antibody (Sigma Cat. # V4758) at a concentration of 0.26 μg/ml and secondary antibodies Sheep anti-mouse IgG linked to horseradish peroxidase (1:2000). TMB (Pierce Cat. #34021) was used as a substrate for peroxidase.
(§1) The plates were read at 450 nm with a reference wavelength of 630 nm using a VERSAmax plate reader. […] Percent inhibition was calculated as compared with the control reactions pre-incubated with 1% DMSO only.

[4] = target: T2, pro-heparanase (H60) (Homo sapiens, UniProt Q9Y251, K307R); assay: Pro-heparanase activation in a cell-based assay (293 cells, DMB assay)
T2 sequence (Q9Y251 36-543 K307R): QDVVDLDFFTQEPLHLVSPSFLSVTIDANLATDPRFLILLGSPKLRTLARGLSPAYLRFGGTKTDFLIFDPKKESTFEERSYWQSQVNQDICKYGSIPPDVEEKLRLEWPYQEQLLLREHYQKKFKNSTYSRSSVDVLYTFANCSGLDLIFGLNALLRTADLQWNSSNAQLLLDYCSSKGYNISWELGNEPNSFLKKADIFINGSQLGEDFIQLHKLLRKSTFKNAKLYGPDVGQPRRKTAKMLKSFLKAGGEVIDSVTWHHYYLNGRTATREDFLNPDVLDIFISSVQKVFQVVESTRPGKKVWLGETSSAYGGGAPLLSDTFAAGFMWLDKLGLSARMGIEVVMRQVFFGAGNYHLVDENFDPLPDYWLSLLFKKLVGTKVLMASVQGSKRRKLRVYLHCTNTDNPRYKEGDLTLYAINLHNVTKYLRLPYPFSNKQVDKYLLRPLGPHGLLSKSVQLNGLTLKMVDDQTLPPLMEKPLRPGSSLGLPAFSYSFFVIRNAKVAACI

[5] = target: T3, heparanase (H53) (Homo sapiens, UniProt Q9Y251, K307R); assay: Heparanase activity inhibition (H53), DMB assay; format: biochemical; conditions: heparanase activity inhibition (H53); NI = no inhibition
T3 sequence (Q9Y251 158-543 K307R limits assumed): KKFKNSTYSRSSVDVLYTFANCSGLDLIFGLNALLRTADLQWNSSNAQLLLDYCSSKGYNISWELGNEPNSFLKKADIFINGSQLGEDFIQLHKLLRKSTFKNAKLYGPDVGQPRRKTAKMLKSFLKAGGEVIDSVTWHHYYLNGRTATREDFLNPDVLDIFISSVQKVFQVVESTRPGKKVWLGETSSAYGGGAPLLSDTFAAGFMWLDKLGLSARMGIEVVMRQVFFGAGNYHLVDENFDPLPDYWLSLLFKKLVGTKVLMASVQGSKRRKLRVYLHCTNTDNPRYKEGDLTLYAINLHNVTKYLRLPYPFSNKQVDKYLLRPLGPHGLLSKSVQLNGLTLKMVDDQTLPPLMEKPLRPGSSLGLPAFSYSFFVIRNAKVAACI
T3 sequence (Q9Y251 36-109 limits assumed): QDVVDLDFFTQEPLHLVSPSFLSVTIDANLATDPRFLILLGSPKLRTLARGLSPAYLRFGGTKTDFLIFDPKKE
Description: At the end of the incubation, the cells were lysed by three consecutive cycles of freezing and thawing in a −80° C. Freezer and a 37° C. shaker. Formation of active heparanase was detected by determination of heparanase activity in DMB assay as described in patent application U.S. Pat. No. 6,190,875B.

[6] = target: T4, pro-heparanase transiently expressed in 293 cells (Homo sapiens, UniProt Q9Y251, K307R); assay: Pro-heparanase processing in transiently transfected 293 cells (Western blot); format: cell-based
T4 sequence (Q9Y251 36-543 K307R): T2 sequence (Q9Y251 36-543 K307R)
Description: (§2) Western blot analysis—Western blot analysis was performed using rabbit anti-heparanase polyclonal antibodies as described in U.S. Pat. Nos. 6,177,545; 6,531,129; and 6,562,950.
Transient transfections—293 cells (200,000) were plated onto a 6 well tissue culture plate. 24 hrs later, the cells were transfected with 1 μg pSI (Promega) hpa plasmid (U.S. Pat. No. 6,475,763) in 3 μl Fugene reagent that was pre-incubated for 15 min in 100 μl medium without serum. Cells were treated with inhibitors 4 and 17 hrs following transfection.

[7] = target: T5, β-FGF (Homo sapiens, UniProt P09038); assay: Elisa assay for binding of β-FGF to heparin; conditions: inhibition of β-FGF binding to heparin
T5 construct: purchased Sigma F0291
Description: Elisa assay for determination of binding of β-FGF to heparin—96 well microplates were coated overnight with Heparin-albumin (Lizard) and blocked with 1% BSA in PBS with 0.05% Tween and 0.01% thimerosal for 2 hrs. β-FGF was added to the plates at a concentration of 0.8 ng/ml and incubated for 45 min at 23-25° C. The amount of β-FGF bound to heparin was detected using anti-FGF monoclonal antibody (Sigma Cat. # F6162) at a concentration of 2.5 ng/ml and secondary antibodies Sheep anti-mouse IgG linked to horseradish peroxidase (1:3000). TMB (Pierce Cat. #34021) was used as a substrate for peroxidase.
as §1

[8] = target: T6, cathepsin G (Homo sapiens, UniProt P08311); assay: Cathepsin G activity inhibition; format: biochemical; conditions: data not shown
T6 sequence (P08311 21-244): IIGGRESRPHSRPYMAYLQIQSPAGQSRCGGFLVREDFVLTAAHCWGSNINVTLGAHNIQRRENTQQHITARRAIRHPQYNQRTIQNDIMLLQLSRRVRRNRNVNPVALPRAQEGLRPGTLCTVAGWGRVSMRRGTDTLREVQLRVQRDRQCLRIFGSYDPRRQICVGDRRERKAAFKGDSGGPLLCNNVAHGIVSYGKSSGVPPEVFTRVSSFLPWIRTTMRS

[9] = target: T2, pro-heparanase (H60); assay: Processing and activation of pro-heparanase in vitro with cathepsin B and D in the presence of heparin (Western blot, DMB assay); format: biochemical; conditions: cathepsin B and/or cathepsin D, heparin-sepharose
Description: as §2
Following a 17 hours incubation at room temperature, reaction products were filtered to a new plate and quantified using di-methyl-methylene-blue, as described in U.S. Pat. No. 6,190,875.
Assay mixtures contained heparin (Sigma, H3393) or heparinomimetic molecules ethane-1,2-disulfonic acid (Sigma, E2269) and heparin disaccharide IVA (Sigma, H0895) for western blot analysis or heparin sepharose beads for activation assays, in 200 mM acetate buffer, pH 5.5, 4 mM EDTA and 8 mM DTT, with either Cathepsin B, Cathepsin D or both. Following a 17 hours of incubation at room temperature, reaction products were examined by western blot analysis or filtered to a new plate and quantified using di-methyl-methylene-blue, as described in U.S. Pat. No. 6,190,875 for activation assay.

[10] = system: pro-heparanase (H60); assay: Processing and activation of pro-heparanase in vitro with cathepsin G; format: biochemical, human; conditions: in the presence of heparin
Description: The assays were performed in assay mixtures containing heparin for western blot analysis or heparin sepharose beads for activation assays, in PBS, 365 mM NaCl, with 1 μ/ml cathepsin G (Sigma, C4428). Following a 17 hours incubation at room temperature, reaction products were examined in western blot analysis or filtered to a new plate and quantified using di-methyl-methylene-blue, as described in U.S. Pat. No. 6,190,875 for activation assay.

[11] = target: T7, Elastase, human neutrophil (Homo sapiens, UniProt P08246); assay: Determination of elastase activity; format: biochemical; conditions: Table 13
T7 construct: Elastase, human neutrophil (Calbiochem cat.# 324681); purchased Calbiochem 324681; host or cells: human neutrophils
T7 sequence (P08246 30-267): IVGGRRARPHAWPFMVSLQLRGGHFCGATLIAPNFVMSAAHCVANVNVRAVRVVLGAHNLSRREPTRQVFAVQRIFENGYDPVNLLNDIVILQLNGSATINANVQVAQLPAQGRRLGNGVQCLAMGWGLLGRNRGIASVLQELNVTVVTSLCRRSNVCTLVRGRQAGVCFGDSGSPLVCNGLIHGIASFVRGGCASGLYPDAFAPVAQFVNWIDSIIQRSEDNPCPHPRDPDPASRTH

[12] = system: 293 cell extract; assay: Cleavage of Z-Pro-Lys-Lys-Glu-AMC (Peptide 1) by 293 cell extract and its inhibition by protease inhibitors; format: biochemical, human; conditions: different pHs, pH range 4.5-7.5
Description: Following a 20 minutes incubation at 37° C., fluorescence released due to proteolytic activity was determined using a BMG POLARstar™ Galaxy fluorometer: excitation at 390 nm and emission at 460 nm.

[13] = target: Cathepsin B (Homo sapiens, UniProt P07858); assay: Proteolytic activity assay: cleavage of fluorogenic peptides by cathepsin B; format: biochemical; conditions: substrate cleaved by Cathepsin B
Description: (§3) Assay was done in a reaction mixture containing 200 mM acetate buffer, pH 5.5, 4 mM EDTA and 8 mM DTT. Following a 20 minutes incubation at 37° C., fluorescence released due to proteolytic activity was determined using a BMG POLARstar™ Galaxy fluorometer: excitation at 390 nm and emission at 460 nm.

[14] = target: T8, Cathepsin L (Homo sapiens, UniProt P07711); assay: Proteolytic activity assay: cleavage of fluorogenic peptides by cathepsin L; format: biochemical; conditions: substrate cleaved by Cathepsin L
T8 construct: purchased Calbiochem
Description: as §3

T8 sequence (P07711 114-333, species assumed): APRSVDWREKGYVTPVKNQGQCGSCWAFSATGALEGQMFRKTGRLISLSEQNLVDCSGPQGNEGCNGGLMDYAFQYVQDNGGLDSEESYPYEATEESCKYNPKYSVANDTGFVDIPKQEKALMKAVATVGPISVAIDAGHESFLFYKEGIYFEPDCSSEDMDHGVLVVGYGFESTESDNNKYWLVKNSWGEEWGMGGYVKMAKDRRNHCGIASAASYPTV
T5 sequence (P09038 143-288): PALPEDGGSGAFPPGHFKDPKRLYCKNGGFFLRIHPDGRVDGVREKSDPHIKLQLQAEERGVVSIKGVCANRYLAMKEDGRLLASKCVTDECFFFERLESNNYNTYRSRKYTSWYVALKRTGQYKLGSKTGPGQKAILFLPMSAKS
antithrombin, sequence (P01008 33-464): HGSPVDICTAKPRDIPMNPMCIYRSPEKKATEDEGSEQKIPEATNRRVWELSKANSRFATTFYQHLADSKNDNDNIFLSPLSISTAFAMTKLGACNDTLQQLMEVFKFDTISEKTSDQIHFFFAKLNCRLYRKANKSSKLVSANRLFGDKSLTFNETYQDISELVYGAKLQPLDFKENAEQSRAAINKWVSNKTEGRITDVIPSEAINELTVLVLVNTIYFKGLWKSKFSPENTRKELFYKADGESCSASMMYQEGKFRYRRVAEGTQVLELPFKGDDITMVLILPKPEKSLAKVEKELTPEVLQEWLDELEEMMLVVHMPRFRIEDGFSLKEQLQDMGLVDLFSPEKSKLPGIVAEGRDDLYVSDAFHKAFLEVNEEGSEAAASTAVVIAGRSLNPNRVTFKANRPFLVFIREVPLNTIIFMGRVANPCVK

In the case of `Cc1cc(N(C)C)cc2[s+]c3cc(N(C)C)cc(C)c3nc12` [Compound 112], the IC50 [1] is reported as 18 µM, the “Binding to heparin (5 uM)” value [2] is reported as 70% and the IC50 [3] is reported as 2.4 µM. For the same compound, the IC50 ([4]; inhibition of pro-heparanase activation, Table 11, heparin-binding compounds) was 0.57 µM, the IC50 [5] was 20 µM and the pro-heparanase expression [6] was “did not affect pro-heparanase expression”. The pro-heparanase processing [6] was “completely inhibited pro-heparanase processing” and the IC50 [7] was 1.3 µM.

With `O=C(Nc1ccc(Oc2cccc(Oc3ccc(NC(=O)c4ccncc4)cc3)c2)cc1)c1ccncc1` [Compound 128] the “inhibition of the activity of cathepsin G” value [8] was “inhibit the activity of cathepsin G”, the “activation of pro-heparanase in vitro (heparanase activity)” value [9] was “not by cathepsin B” and the “inhibition of pro-heparanase activation in-vitro by cathepsin G” value [10] was “inhibit pro-heparanase activation in-vitro by cathepsin G”. It also gave an IC50 ([4]; inhibition of pro-heparanase (H60) activation, Table 13 serine protease inhibitors) of 0.5 µM and an IC50 [11] of 13 µM.

With “Z-Pro-Lys-Lys-Glu-AMC (Cbz-PKKE-{AMC}; SMILES Cc1cc(=O)oc2cc(NC(=O)[C@H](CCC(=O)O)NC(=O)[C@H](CCCCN)NC(=O)[C@H](CCCCN)NC(=O)[C@@H]3CCCN3C(=O)OCc3ccccc3)ccc12) [Peptide 1]” the “cleavage by 293 cell extract” value [12] was “highest at pH 5.5-6.5”, the “Activity (δfluorescence)” value [13] was 8926 and the “Activity (δfluorescence)” value [14] was 0.
